Laboratory results taken from the supplement of paper PMC11451515.

Key:
Conditions in all cases: 48 h
[1] = system: NOMO1; assay: cell viability relative to DMSO control; higher = less cytotoxic
Outline: (§1)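 Viability values are per-plate percentages of DMSO wells, with background from cell-free wells. Library compounds in DMSO were pin-dosed, in an 11-point threefold series from 47 μM to 0.79 nM, onto NOMO1 or SEM (500 cells/well) or P12-Ichikawa (1000 cells/well) leukemia cells in 1536-well plates (5 μl). Those cells had been adapted for at least four passages in each medium, and CellTiter-Glo One luminescence was read after 48 h at 37°C.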

[2] = system: P12-Ichikawa; assay: as above
Outline: as §1

[3] = system: SEM cells; assay: as above
Outline: as §1

[4] = system: NOMO1; assay: AUC of viability dose-response curve (% viability x log10 dose units); higher = less sensitive
Outline: (§2)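 Library compounds in DMSO were applied for 48 h at 37°C at 11 threefold doses (47 μM to 0.79 nM) to medium-adapted leukemia cells in 1536-well plates holding 500 or 1000 cells/well. Luminescence from CellTiter-Glo One was normalised plate by plate against DMSO and cell-free wells. Area under the curve came from trapezoidal integration of a log-logistic fit, after scaling curves that rose above full viability and discarding those that failed quality control. The fit had four parameters and used log10 doses.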

[5] = system: P12-Ichikawa; assay: as above
Outline: as §2

[6] = system: SEM cells; assay: as above
Outline: as §2

CCCOc1ccc(C(=O)OCCN(CC)CC)cc1N
cell viability [%]
Conditions | [1] | [2] | [3]
HPLM + 10% dialyzed FBS, 0.000781 µM | 109 | 106 | 85.3
HPLM + 10% dialyzed FBS, 0.00234 µM | 124 | 116 | 105
HPLM + 10% dialyzed FBS, 0.00702 µM | 124 | 79.2 | 29.3
HPLM + 10% dialyzed FBS, 0.0211 µM | 121 | 113 | 105
HPLM + 10% dialyzed FBS, 0.0632 µM | 140 | 122 | 104
HPLM + 10% dialyzed FBS, 0.19 µM | 130 | 119 | 118
HPLM + 10% dialyzed FBS, 0.569 µM | 132 | 122 | 122
HPLM + 10% dialyzed FBS, 1.71 µM | 139 | 123 | 104
HPLM + 10% dialyzed FBS, 5.12 µM | 121 | 125 | 108
HPLM + 10% dialyzed FBS, 15.4 µM | 112 | 119 | 114
HPLM + 10% dialyzed FBS, 46.1 µM | 106 | 118 | 97.7
RPMI 5 mM glucose + 10% FBS, 0.000781 µM | 107 | 104 | 94.6
RPMI 5 mM glucose + 10% FBS, 0.00234 µM | 115 | 130 | 110
RPMI 5 mM glucose + 10% FBS, 0.00702 µM | 122 | 69.2 | 10.1
RPMI 5 mM glucose + 10% FBS, 0.0211 µM | 123 | 112 | 118
RPMI 5 mM glucose + 10% FBS, 0.0632 µM | 107 | 129 | 115
RPMI 5 mM glucose + 10% FBS, 0.19 µM | 120 | 128 | 107
RPMI 5 mM glucose + 10% FBS, 0.569 µM | 113 | 130 | 114
RPMI 5 mM glucose + 10% FBS, 1.71 µM | 111 | 126 | 116
RPMI 5 mM glucose + 10% FBS, 5.12 µM | 123 | 133 | 105
RPMI 5 mM glucose + 10% FBS, 15.4 µM | 118 | 115 | 120
RPMI 5 mM glucose + 10% FBS, 46.1 µM | 118 | 120 | 96.3
RPMI 5 mM glucose + 10% dialyzed FBS, 0.000781 µM | 111 | 100 | 80
RPMI 5 mM glucose + 10% dialyzed FBS, 0.00234 µM | 127 | 115 | 88
RPMI 5 mM glucose + 10% dialyzed FBS, 0.00702 µM | 115 | 72.8 | 23.2
RPMI 5 mM glucose + 10% dialyzed FBS, 0.0211 µM | 118 | 111 | 104
RPMI 5 mM glucose + 10% dialyzed FBS, 0.0632 µM | 120 | 125 | 99.3
RPMI 5 mM glucose + 10% dialyzed FBS, 0.19 µM | 128 | 123 | 104
RPMI 5 mM glucose + 10% dialyzed FBS, 0.569 µM | 121 | 123 | 95.8
RPMI 5 mM glucose + 10% dialyzed FBS, 1.71 µM | 119 | 122 | 98.1
RPMI 5 mM glucose + 10% dialyzed FBS, 5.12 µM | 117 | 130 | 106
RPMI 5 mM glucose + 10% dialyzed FBS, 15.4 µM | 131 | 127 | 102
RPMI 5 mM glucose + 10% dialyzed FBS, 46.1 µM | 121 | 110 | 85.3

AUC of viability dose-response curve
Conditions | HPLM + 10% dialyzed FBS | RPMI 5 mM glucose + 10% FBS | RPMI 5 mM glucose + 10% dialyzed FBS
[4] | 465 | 468 | 464
[5] | 453 | 448 | 446

Cc1c(CN2CCN([S+](C)(=O)[O-])CC2)sc2c(N3CCOCC3)nc(-c3cnc(N)nc3)nc12
[3], RPMI 5 mM glucose + 10% dialyzed FBS
Conditions | cell viability [%]
0.000781 µM | 118
0.00234 µM | 134
0.00702 µM | 122
0.0211 µM | 105
0.0632 µM | 87.3
0.19 µM | 86.6
0.569 µM | 98.8
1.71 µM | 57.9
5.12 µM | 50.8
15.4 µM | 50.6
46.1 µM | 44

AUC of viability dose-response curve
Conditions | [4] | [5] | [6]
HPLM + 10% dialyzed FBS | 305 | 371 | 287
RPMI 5 mM glucose + 10% FBS | 350 | 336 | 304
RPMI 5 mM glucose + 10% dialyzed FBS | 316 | 332 | 328

CC1(COc2ccc3c(c2)ncn3-c2ccc3cccc(N4CCC(N)CC4)c3n2)COC1
cell viability [%], [3]
Conditions | HPLM + 10% dialyzed FBS | RPMI 5 mM glucose + 10% FBS | RPMI 5 mM glucose + 10% dialyzed FBS
0.000781 µM | 91.2 | 114 | 99.8
0.00234 µM | 96.7 | 101 | 99.7
0.00702 µM | 81.3 | 94 | 73.6
0.0211 µM | 62.7 | 64.9 | 59.6
0.0632 µM | 38.9 | 28.8 | 33.8
0.19 µM | 56.3 | 49.8 | 51.1
0.569 µM | 54.4 | 49.5 | 47.4
1.71 µM | 44.1 | 40.5 | 48.2
5.12 µM | 26.4 | 18.1 | 20
15.4 µM | 28.7 | 16.4 | 20.2
46.1 µM | 6.33 | 5.26 | 6.44

AUC of viability dose-response curve
Conditions | HPLM + 10% dialyzed FBS | RPMI 5 mM glucose + 10% FBS | RPMI 5 mM glucose + 10% dialyzed FBS
[5] | 392 | 403 | 418
[6] | 254 | 216 | 240

C=C(c1ccc(C(=O)O)cc1)c1cc2c(cc1C)C(C)(C)CCC2(C)C
Conditions | cell viability [%]
[2], HPLM + 10% dialyzed FBS, 0.000781 µM | 113
[2], HPLM + 10% dialyzed FBS, 0.00234 µM | 119
[2], HPLM + 10% dialyzed FBS, 0.00702 µM | 121
[2], HPLM + 10% dialyzed FBS, 0.0211 µM | 121
[2], HPLM + 10% dialyzed FBS, 0.0632 µM | 126
[2], HPLM + 10% dialyzed FBS, 0.19 µM | 129
[2], HPLM + 10% dialyzed FBS, 0.569 µM | 125
[2], HPLM + 10% dialyzed FBS, 1.71 µM | 120
[2], HPLM + 10% dialyzed FBS, 5.12 µM | 124
[2], HPLM + 10% dialyzed FBS, 15.4 µM | 117
[2], HPLM + 10% dialyzed FBS, 46.1 µM | 114
[3], RPMI 5 mM glucose + 10% dialyzed FBS, 0.000781 µM | 95
[3], RPMI 5 mM glucose + 10% dialyzed FBS, 0.00234 µM | 110
[3], RPMI 5 mM glucose + 10% dialyzed FBS, 0.00702 µM | 134
[3], RPMI 5 mM glucose + 10% dialyzed FBS, 0.0211 µM | 116
[3], RPMI 5 mM glucose + 10% dialyzed FBS, 0.0632 µM | 116
[3], RPMI 5 mM glucose + 10% dialyzed FBS, 0.19 µM | 125
[3], RPMI 5 mM glucose + 10% dialyzed FBS, 0.569 µM | 120
[3], RPMI 5 mM glucose + 10% dialyzed FBS, 1.71 µM | 118
[3], RPMI 5 mM glucose + 10% dialyzed FBS, 5.12 µM | 111
[3], RPMI 5 mM glucose + 10% dialyzed FBS, 15.4 µM | 99.3
[3], RPMI 5 mM glucose + 10% dialyzed FBS, 46.1 µM | 83.5

AUC of viability dose-response curve
Conditions | [4] | [5] | [6]
HPLM + 10% dialyzed FBS | 422 | 477 | 465
RPMI 5 mM glucose + 10% FBS | 434 | 470 | 465
RPMI 5 mM glucose + 10% dialyzed FBS | 431 | 468 | 461

NC(=O)N/N=C/c1ccc([N+](=O)[O-])o1
cell viability [%], [3]
Conditions | HPLM + 10% dialyzed FBS | RPMI 5 mM glucose + 10% FBS
0.000781 µM | 104 | 121
0.00234 µM | 120 | 133
0.00702 µM | 101 | 123
0.0211 µM | 124 | 129
0.0632 µM | 125 | 137
0.19 µM | 122 | 142
0.569 µM | 109 | 116
1.71 µM | 122 | 140
5.12 µM | 112 | 139
15.4 µM | 126 | 161
46.1 µM | 109 | 120

AUC of viability dose-response curve
Conditions | [4] | [5] | [6]
HPLM + 10% dialyzed FBS | 455 | 470 | 472
RPMI 5 mM glucose + 10% FBS | 441 | 435 | 453
RPMI 5 mM glucose + 10% dialyzed FBS | 434 | 470 | 467
